Test results as given in patent publication US12729377B2, “RNAi agents and compositions for inhibiting expression of angiopoietin-like 3 (ANGPTL3), and methods of use” (Arrowhead Pharmaceuticals, Inc., priority 2017, dated 2026).

How the values were obtained:
Assay type in all cases: in vivo, LDLR KO mice
ANGPTL3 protein = assay: Example 14: RNAi agent and statin, serum ANGPTL3 protein by ELISA in LDLR knockout mice; conditions: no injection
Text: (§1) To evaluate the effect of co-administration of RNAi agents and statins in a disease model, LDLR KO mice were commercially obtained (The Jackson Laboratory). For three weeks prior to the onset of the study, forty-one (41) male 7 to 8 week old LDLR KO mice were placed on a high fat (“western”) diet (Teklad Custom Diets TD.88137), and remained on that diet throughout the duration of the study. Pre-dose serum samples were taken on study Day 1 after a four hour fast. The dosing regimen for the study is recited in the following Table 72:
(§2) • Mice were treated at 40 mg/kg for the first 11 days, then switched to 20 mg/kg thereafter.
(§3) The vehicle used for the oral gavage in the study was a 1:1 mixture of Ora-Plus®: Ora-Sweet® solution, which were acquired commercially. For the preparation of the atorvastatin oral gavage administrations, the respective desired dose of atorvastatin was first dissolved in sterile water (0.3 mL water per 1 mL of desired formulation) and vortexed until smooth, followed by the addition of a mixture of 1:1 Ora-Plus®: Ora-Sweet® solution (0.7 mL vehicle per 1 mL of desired formulation) and vortexed. On day 1 and for each day thereafter an oral gavage dose was administered for each of the Groups except for Group 2. On Day 23, Groups 1, 2, 3, and 4 received a single subcutaneous administration of 2.5 mg/kg dose ([…] solution) of an ANGPTL3 RNAi agent in D5W (dextrose in 5% water), or vehicle control (D5W) with no RNAi agent.
(§4) The RNAi agent tested (AD05488) included a modified sequence and an N-acetyl-galactosamine-containing targeting ligand conjugated to the 5′ terminal end of the sense strand. (See Tables 3, 4, and 5 for modified sequences and targeting ligand structures). The injections were performed between the skin and muscle (i.e. subcutaneous injections) into the loose skin over the neck and shoulder area. Serum was collected on days 8, 15, 22 (pre-RNAi agent injection), 29, 36, 43, and 50. LDLR KO mice were fasted for four hours prior to each collection.
(§5) ANGPTL3 protein levels in serum were measured by ELISA assay (R&D Systems), according to the manufacturer's recommendations. Among other biomarkers, triglycerides, total cholesterol, and low-density lipoprotein (LDL) in serum were measured on a Cobas® Integra 400 (Roche Diagnostics), according to the manufacturer's recommendations.
(§6) The ANGPTL3 protein levels, triglyceride levels, total cholesterol levels, HDL levels, and LDL levels for each animal were normalized. For normalization, respective levels of ANGPTL3 protein, TG, total cholesterol, or LDL for each animal at a time point was divided by the pre-treatment level of expression in that animal (in this case pre-dose levels on Day 1) to determine the ratio of expression “normalized to pre-treatment.” Data from the study set forth in this Example are shown in the following Tables 73-76: […]

ANGPTL3 gene [1] = assay: Example 14: RNAi agent and statin, serum triglycerides in LDLR knockout mice; conditions: for Avg TG normalized to pre-treatment: no injection
Text: as §1, §2, §3, §4, §5, §6

ANGPTL3 gene [2] = assay: Example 14: RNAi agent and statin, serum total cholesterol in LDLR knockout mice; conditions: for Avg Total Chol normalized to pre-treatment: no injection
Text: as §1, §2, §3, §4, §5, §6

ANGPTL3 gene [3] = assay: Example 14: RNAi agent and statin, serum LDL in LDLR knockout mice; conditions: for Avg LDL normalized to pre-treatment: no injection
Text: as §1, §2, §3, §4, §5, §6

[4] = Group 5: 10 mg/kg daily oral gavage atorvastatin, Day 8
[5] = Group 5: 10 mg/kg daily oral gavage atorvastatin, Day 15
[6] = Group 5: 10 mg/kg daily oral gavage atorvastatin, Day 22
[7] = Group 5: 10 mg/kg daily oral gavage atorvastatin, Day 29
[8] = Group 5: 10 mg/kg daily oral gavage atorvastatin, Day 36
[9] = Group 5: 10 mg/kg daily oral gavage atorvastatin, Day 43
[10] = Group 5: 10 mg/kg daily oral gavage atorvastatin, Day 50
[11] = Group 6: 20 mg/kg* daily oral gavage atorvastatin (40 mg/kg first 11 days), Day 8
[12] = Group 6: 20 mg/kg* daily oral gavage atorvastatin (40 mg/kg first 11 days), Day 15
[13] = Group 6: 20 mg/kg* daily oral gavage atorvastatin (40 mg/kg first 11 days), Day 22
[14] = Group 6: 20 mg/kg* daily oral gavage atorvastatin (40 mg/kg first 11 days), Day 29
[15] = Group 6: 20 mg/kg* daily oral gavage atorvastatin (40 mg/kg first 11 days), Day 36
[16] = Group 6: 20 mg/kg* daily oral gavage atorvastatin (40 mg/kg first 11 days), Day 43
[17] = Group 6: 20 mg/kg* daily oral gavage atorvastatin (40 mg/kg first 11 days), Day 50
[18] = daily atorvastatin by oral gavage, LDLR KO mice on high fat diet

CC(C)c1c(C(=O)Nc2ccccc2)c(-c2ccccc2)c(-c2ccc(F)cc2)n1CC[C@@H](O)C[C@@H](O)CC(=O)O [atorvastatin, reference compound]
Avg ANGPTL3 normalized to pre-treatment (ANGPTL3 protein; [4]): 1.577
Avg ANGPTL3 normalized to pre-treatment (ANGPTL3 protein; [5]): 1.839
Avg ANGPTL3 normalized to pre-treatment (ANGPTL3 protein; [6]): 1.693
Avg ANGPTL3 normalized to pre-treatment (ANGPTL3 protein; [7]): 1.764
Avg ANGPTL3 normalized to pre-treatment (ANGPTL3 protein; [8]): 1.851
Avg ANGPTL3 normalized to pre-treatment (ANGPTL3 protein; [9]): 1.758
Avg ANGPTL3 normalized to pre-treatment (ANGPTL3 protein; [10]): 1.878
Avg ANGPTL3 normalized to pre-treatment (ANGPTL3 protein; [11]): 1.553
Avg ANGPTL3 normalized to pre-treatment (ANGPTL3 protein; [12]): 1.924
Avg ANGPTL3 normalized to pre-treatment (ANGPTL3 protein; [13]): 1.871
Avg ANGPTL3 normalized to pre-treatment (ANGPTL3 protein; [14]): 1.767
Avg ANGPTL3 normalized to pre-treatment (ANGPTL3 protein; [15]): 1.981
Avg ANGPTL3 normalized to pre-treatment (ANGPTL3 protein; [16]): 1.935
Avg ANGPTL3 normalized to pre-treatment (ANGPTL3 protein; [17]): 1.847
Avg TG normalized to pre-treatment (ANGPTL3 gene [1]; [4]): 0.667
Avg TG normalized to pre-treatment (ANGPTL3 gene [1]; [5]): 0.601
Avg TG normalized to pre-treatment (ANGPTL3 gene [1]; [6]): 1.086
Avg TG normalized to pre-treatment (ANGPTL3 gene [1]; [7]): 0.803
Avg TG normalized to pre-treatment (ANGPTL3 gene [1]; [8]): 0.958
Avg TG normalized to pre-treatment (ANGPTL3 gene [1]; [9]): 0.862
Avg TG normalized to pre-treatment (ANGPTL3 gene [1]; [10]): 0.977
Avg TG normalized to pre-treatment (ANGPTL3 gene [1]; [11]): 0.477
Avg TG normalized to pre-treatment (ANGPTL3 gene [1]; [12]): 0.362
Avg TG normalized to pre-treatment (ANGPTL3 gene [1]; [13]): 0.505
Avg TG normalized to pre-treatment (ANGPTL3 gene [1]; [14]): 0.552
Avg TG normalized to pre-treatment (ANGPTL3 gene [1]; [15]): 0.598
Avg TG normalized to pre-treatment (ANGPTL3 gene [1]; [16]): 0.603
Avg TG normalized to pre-treatment (ANGPTL3 gene [1]; [17]): 0.677
reduction in triglycerides (ANGPTL3 gene [1]; [18]): 40-60%
Avg Total Chol normalized to pre-treatment (ANGPTL3 gene [2]; [4]): 0.821
Avg Total Chol normalized to pre-treatment (ANGPTL3 gene [2]; [5]): 0.774
Avg Total Chol normalized to pre-treatment (ANGPTL3 gene [2]; [6]): 0.980
Avg Total Chol normalized to pre-treatment (ANGPTL3 gene [2]; [7]): 0.943
Avg Total Chol normalized to pre-treatment (ANGPTL3 gene [2]; [8]): 1.105
Avg Total Chol normalized to pre-treatment (ANGPTL3 gene [2]; [9]): 0.998
Avg Total Chol normalized to pre-treatment (ANGPTL3 gene [2]; [10]): 0.987
Avg Total Chol normalized to pre-treatment (ANGPTL3 gene [2]; [11]): 0.586
Avg Total Chol normalized to pre-treatment (ANGPTL3 gene [2]; [12]): 0.620
Avg Total Chol normalized to pre-treatment (ANGPTL3 gene [2]; [13]): 0.767
Avg Total Chol normalized to pre-treatment (ANGPTL3 gene [2]; [14]): 0.761
Avg Total Chol normalized to pre-treatment (ANGPTL3 gene [2]; [15]): 0.825
Avg Total Chol normalized to pre-treatment (ANGPTL3 gene [2]; [16]): 0.767
Avg Total Chol normalized to pre-treatment (ANGPTL3 gene [2]; [17]): 0.807
reduction in total cholesterol (ANGPTL3 gene [2]; [18]): 23-40%
Avg LDL normalized to pre-treatment (ANGPTL3 gene [3]; [4]): 0.778
Avg LDL normalized to pre-treatment (ANGPTL3 gene [3]; [5]): 0.695
Avg LDL normalized to pre-treatment (ANGPTL3 gene [3]; [6]): 0.861
Avg LDL normalized to pre-treatment (ANGPTL3 gene [3]; [7]): 0.881
Avg LDL normalized to pre-treatment (ANGPTL3 gene [3]; [8]): 0.996
Avg LDL normalized to pre-treatment (ANGPTL3 gene [3]; [9]): 0.929
Avg LDL normalized to pre-treatment (ANGPTL3 gene [3]; [10]): 0.872
Avg LDL normalized to pre-treatment (ANGPTL3 gene [3]; [11]): 0.490
Avg LDL normalized to pre-treatment (ANGPTL3 gene [3]; [12]): 0.556
Avg LDL normalized to pre-treatment (ANGPTL3 gene [3]; [13]): 0.687
Avg LDL normalized to pre-treatment (ANGPTL3 gene [3]; [14]): 0.700
Avg LDL normalized to pre-treatment (ANGPTL3 gene [3]; [15]): 0.716
Avg LDL normalized to pre-treatment (ANGPTL3 gene [3]; [16]): 0.689
Avg LDL normalized to pre-treatment (ANGPTL3 gene [3]; [17]): 0.687
reduction in LDL (ANGPTL3 gene [3]; [18]): 30-45%
